Results: US20240423979A1, “THERAPEUTICALLY EFFECTIVE COMBINATION OF A FLT3 INHIBITOR AND A BCL-2 INHIBITOR FOR THE TREATMENT OF ACUTE MYELOID LEUKEMIA” (Hanmi Pharm. Co., Ltd., priority 2021, published 2024)

Legend:
[1] = system: MV-4-11 cell line with FLT3 ITD/ITD isogenic mutation; test: MV-4-11 cell line xenografted mouse model, anti-tumor efficacy; format: in vivo, BALB/c Nude mouse; details: MV-4-11 xenograft, Compound A 3 mg/kg; for Maximum inhibition (%): oral once a day for 21 days, combination 3 + 100 mg/kg, largest tumor inhibition rate during observation
Description: In a mouse model xenografted with the cell line MV-4-11 with FLT3 ITD/ITD isogenic mutation (ATCC, CRL-9591), a comparative or combination efficacy test of the FLT3 inhibitor, 5-chloro-N-(3-cyclopropyl-5-(((3R,5S)-3,5-dimethylpiperazin-1-yl) methyl) phenyl)-4-(6-methyl-1H-indol-3-yl) pyrimidin-2-amine (hereinafter ‘Compound A’), and the Bcl-2 inhibitor, 4-[4-[[2-(4-chlorophenyl)-4,4-dimethylcyclohexen-1-yl]methyl] piperazin-1-yl]-N-[3-nitro-4-(oxan-4-ylmethylamino) phenyl] sulfonyl-2-(1H-pyrrolo [2,3-b]pyridin-5-yloxy) benzamide (hereinafter ‘venetoclax’), was conducted.
MV-4-11 cell lines were purchased from the American Type Culture Collection (ATCC). To build a mouse model xenografted with this MV-4-11 cell line, a 5-week-old male BALB/c Nude mouse (hereinafter referred to as “Nude Mouse”) was purchased from Charles River Laboratories Japan, Inc.
The MV-4-11 cell line was injected subcutaneously in a nude mouse with 5×10^6 cells/0.15 mL/mouse, and was allowed to grow. Mice with a tumor volume of 80 to 300 mm^3 (length×width^2×0.5) were selected on the day of administration, separated into 4 groups (7/group) and administered for a total of 21 days so that the average tumor volume in each group was almost the same.
The control group was administered DMSO/PEG400/DW (ratio=0.5/2/7.5, volume/volume/volume) mixed solution orally once a day, and the compound A group was administered 3 mg/kg/day once a day. It was orally administered, and the venetoclax group was orally administered once a day at a dose of 100 mg/kg/day. In the combined group, compound A was administered orally once a day at a dose of 3 mg/kg/day, and venetoclax was administered orally once a day at a dose of 100 mg/kg/day. Each group was administered individual medications for 21 days.
The maximum inhibition rate (%) and the change in weight loss (%) of mice were calculated, and the experimental results are shown in Table 1. The Inhibition rate (IR) was obtained from “(1−mean of individual relative tumor volume in the drug treatment group/average of individual relative tumor volume in the control group)×100%”, and the maximum inhibition rate was the largest inhibition rate during the observation period. The change in weight loss (%) was calculated from “(1−weight on the day of measurement/weight on the start day of administration)×100%”. The relative tumor volume was calculated from “the tumor volume/initial tumor volume×100% at the date of measurement”.

[2] = system: MOLM-13 cell line carrying the FLT3-WT/ITD heterogeneous mutation; test: MOLM-13 cell line xenografted mouse model, anti-tumor efficacy; format: in vivo, nude mice; details: MOLM-13 xenograft, Compound A 10 mg/kg, venetoclax 100 mg/kg; for Maximum inhibition (%): oral once a day for 14 days, combination 10 + 100 mg/kg, largest tumor inhibition rate during observation
Procedure: In a mouse model xenografted with the MOLM-13 (DSMZ no. ACC 554) cell line carrying the FLT3-WT/ITD heterogeneous mutation, a comparative or combination efficacy test of the FLT3 inhibitor, 5-chloro-N-(3-cyclopropyl-5-(((3R,5S)-3,5-dimethylpiperazine-1-yl) methyl) phenyl)-4-(6-methyl-1H-indol-3-yl) pyrimidin-2-amine (hereinafter ‘Compound A’) and the Bcl-2 inhibitor, venetoclax was conducted.
The MOLM-13 cell line was purchased from Deutsche Sammlung von Mikroorganismen und Zellkulturen (DSMZ) GmbH. To construct a mouse model xenografted with this MOLM-13 cell line, 5-week-old male nude mice were purchased from Charles River Laboratories Japan, Inc.
The MOLM-13 cell line was injected subcutaneously into nude mice at 5×10^6 cells/0.2 mL/mouse, and was allowed to grow. Mice having a tumor volume of 55 to 415 mm^3 (length×width^2×0.5) were selected on the day of administration, and after having been divided into 4 groups (3 mice each in the control group and the compound A group, 4 mice each in the venetoclax group and the compound A and venetoclax combination group) so that the average tumor volume of each group was similar, the control group was administered for 11 days, and each drug administration group received individual medications for 14 days. The control group was measured for 12 days, and each drug administration group was measured for 15 days.
The control group received an oral administration of a mixed solution of DMSO/PEG400/DW (ratio=0.5/2/7.5, volume/volume/volume) once a day, the compound A group received an oral administration once a day at a dose of 10 mg/kg/day, and the venetoclax group received an oral administration once a day at a dose of 100 mg/kg/day. […]
The maximum inhibition rate (%) and the change in weight loss (%) of mice were calculated, and the experimental results are shown in Table 2. […] The change in weight loss (%) was calculated from “(1−body weight on the measurement day/weight on the start date of administration)×100%”. Relative tumor volume was calculated from “tumor volume on measurement day/initial tumor volume×100%”.

[3] = system: relapsed or refractory AML; test: Open-label first-in-human dose escalation, exploration and expansion study; format: in vivo; details: patients with relapsed or refractory AML, single agent, 80 mg dose daily oral
Description: This study is an open-label, first-in-human, dose escalation, exploration, and expansion study of Compound A as a single agent and in combination with venetoclax in patients with relapsed or refractory AML. Cycle 1 in dose escalation is defined as 30 days, all other cycles lasting at least 28 days. Patients will receive oral Compound A at QD on a continuous basis, with the exception of Cycle 1 Day 2 in Part A. The study treatment can continue until a discontinuation criterion is met.
The initial dose level of Compound A as a single agent was 20 mg daily and the decision to dose escalate to the next dose level is made based on the assessment of safety variables including moderate toxicity (MT, a Grade 2 AE judged by the investigator to be related to study drug (except for hematologic toxicities)) or dose limiting toxicity (DLT). This study includes 3 parts: Part A: Dose Escalation; Part B: Dose Exploration; and Part C: Dose Expansion.
Part A includes the initial dose escalation cohorts. Provisional dose escalation scheme with the planned doses of Compound A are as follows: 20 mg, 30 mg, 40 mg, 60 mg, 80 mg, 120 mg, 160 mg, 200 mg, or 240 mg. Patients are treated daily in 28-day cycles except for the Cycle 1 (30 days). The DLT observation period is during Cycle 1 starting with the first dose on Day 1. […]

## Cc1ccc2c(-c3nc(Nc4cc(CN5C[C@@H](C)N[C@@H](C)C5)cc(C5CC5)c4)ncc3Cl)c[nH]c2c1 [Compound A, 5-chloro-N-(3-cyclopropyl-5-(((3R,5S)-3,5-dimethylpiperazin-1-yl)methyl)phenyl)-4-(6-methyl-1H-indol-3-yl) pyrimidin-2-amine]
[1]; 9th day of administration, venetoclax 100 mg/kg
  complete regression (mice out of 7): not observed
[1]; 16th day of administration
  partial regression (mice out of 7): 1 out of 7
[1]; venetoclax 100 mg/kg
  Maximum inhibition (%): 54.0%
[2]
  Maximum inhibition (%): 68.1%
[2]; combined group on 7th day of administration
  complete regression (mice per group): not observed
[3]
  clinical response (complete responses): several complete responses

## CC1(C)CCC(CN2CCN(c3ccc(C(=O)NS(=O)(=O)c4ccc(NCC5CCOCC5)c([N+](=O)[O-])c4)c(Oc4cnc5[nH]ccc5c4)c3)CC2)=C(c2ccc(Cl)cc2)C1 [Venetoclax, 4-[4-[[2-(4-chlorophenyl)-4,4-dimethylcyclohexen-1-yl]methyl]piperazin-1-yl]-N-[3-nitro-4-(oxan-4-ylmethylamino)phenyl] sulfonyl-2-(1H-pyrrolo [2,3-b]pyridin-5-yloxy) benzamide, reference compound]
[1]; venetoclax 100 mg/kg
  Maximum inhibition (%): 76.1%
[2]
  Maximum inhibition (%): 56.3%
